From the NIST ThermoML archive (doi:10.1021/je049636m)

Settings: Liquid

Cc1ccccc1 [toluene]
Settings | viscosity [mPa·s]
298.15 K, 100 kPa | 0.555
298.15 K, 2110 kPa | 0.5649
298.15 K, 4100 kPa | 0.5743
298.15 K, 6100 kPa | 0.585
298.15 K, 8110 kPa | 0.5937
298.15 K, 10110 kPa | 0.6024
323.15 K, 100 kPa | 0.4188
323.15 K, 2080 kPa | 0.429
323.15 K, 4110 kPa | 0.4348
323.15 K, 6000 kPa | 0.4409
323.15 K, 8120 kPa | 0.4493
323.15 K, 10050 kPa | 0.455
323.15 K, 12210 kPa | 0.4637
323.15 K, 15000 kPa | 0.4736
348.15 K, 100 kPa | 0.3331
348.15 K, 2120 kPa | 0.3382
348.15 K, 12110 kPa | 0.3664
348.15 K, 15210 kPa | 0.3759

viscosity [mPa·s], Vibrating wire viscometry
Settings | 100 kPa | 10000 kPa | 20000 kPa | 30000 kPa | 40000 kPa
298.15 K | 0.5551 | 0.6003 | 0.6445 | 0.6953 | 0.751
323.15 K | 0.4223 | 0.4573 | 0.4945 | 0.5313 | 0.5718
348.15 K | 0.3285 | 0.3583 | 0.3875 | 0.4165 | 0.4483
